The target of experiment [1] is T1, NAD-dependent protein deacetylase sirtuin-2 (Homo sapiens) (UniProt Q8IXJ6).
T1 sequence (whole entry): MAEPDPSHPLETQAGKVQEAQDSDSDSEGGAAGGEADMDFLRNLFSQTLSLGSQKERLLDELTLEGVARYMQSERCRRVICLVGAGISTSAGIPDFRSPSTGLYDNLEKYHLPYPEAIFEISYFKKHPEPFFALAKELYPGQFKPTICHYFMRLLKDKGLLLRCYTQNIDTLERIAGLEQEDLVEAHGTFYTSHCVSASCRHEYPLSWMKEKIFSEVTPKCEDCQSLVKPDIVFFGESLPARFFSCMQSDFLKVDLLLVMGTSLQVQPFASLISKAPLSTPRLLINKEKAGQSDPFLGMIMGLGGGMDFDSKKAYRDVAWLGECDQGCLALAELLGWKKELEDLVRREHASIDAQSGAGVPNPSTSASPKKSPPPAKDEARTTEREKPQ
The experiment can be described thus: Inhibition of SIRT2 (unknown origin) using IU179 as substrate incubated for 30 mins by Fluor de Lys sirtuin assay relative to control. More on the design: concentration or dose not given beside the values.

In experiment [2] the test system is T47D. The experiment can be described thus: Antiproliferative activity against human T47D cells assessed as decrease in cell numbers at 10 to 100 uM incubated for 24 hrs by PI staining based analysis relative to control. The format is functional. More on the design: scale not given: the % may be the effect or the level left. As to conditions: dose 10-100 µM.
The test system of experiment [3] is T47D. The experiment can be described thus: Antitumor activity against human T47D cell spheroids assessed as reduction in spheroid growth at 10 to 100 uM measured for >200 hrs by Image J analysis relative to control. The format is functional. The arrangement: scale not given: the % may be the effect or the level left. As to conditions: dose 10-100 µM.
Experiment [4] has as its system T47D. In words: Antitumor activity against human T47D cell spheroids assessed as reduction in spheroid growth at 100 uM measured for >200 hrs by Image J analysis relative to control. The experiment is classed as functional. The arrangement: scale not given: the % may be the effect or the level left.

The record followed here is ChEMBL document CHEMBL5614425, “Novel inhibitors of bromodomain and extra-terminal domain trigger cell death in breast cancer cell lines” (2024).

Some results are limits rather than exact numbers.

Regarding `NC(=O)C(NC(=O)CCCOc1ccc2c(c1)CCC(=O)N2)C(N)=O`, the inhibition in experiment [1] was < 50%.

For the molecule `CCOc1ccc(C(C)NC(=O)COc2ccc3c(c2)CCC(=O)N3)cc1` (centres undefined), the inhibition in experiment [1] was < 50%.

Consider `Cc1ccc(NC(=O)c2ccc(S(=O)(=O)N3CCCCCC3)cc2)c(C)c1`, for which the inhibition in experiment [1] is < 50%. Also, the Activity with T47D [2] is reported as >40%; in the experiment with T47D [3], ~20%; with T47D [4], 100%.

Molecule `CC1CCCCN1S(=O)(=O)c1ccc(C(=O)Nc2ccc(N3CCOCC3)c3ccncc23)cc1` (centres undefined) yielded an inhibition in experiment [1] of 84%.

Regarding `COc1cc(/C=N/c2ccc(N3N=C(C)CC3=O)cc2)ccc1O`, the inhibition in experiment [1] came out at 50%.

As for `Cc1cnc2c(c1)N(C(=O)COc1ccc(Cl)c(C)c1)CCC2`, the inhibition in experiment [1] was < 50%.

As a reminder, the inhibition is the percentage by which the read-out fell short of the control.
